In ChEMBL document CHEMBL3091361, “Synthesis, structure elucidation and in vitro anticancer activities of novel derivatives of diethyl (2E)-2-[(2E)-(1-arylimidazolidin-2-ylidene)hydrazono]succinate and ethyl (4-oxo-8-aryl-4,6,7,8-tetrahydroimidazo[2,1-c][1,2,4]triazin-3-yl)acetate” (Bioorg Med Chem, 2013):

Experiments:
[1] = Cytotoxicity against human MM1S cells at 50 ug/ml after 48 hrs by BrdU incorporation assay relative to control; assay type: functional; settings: MM1.S, read-out: GI
HeLa [2] = test: Induction of apoptosis in human HeLa cells at 50 ug/ml after 72 hrs by propidium iodide/Hoechst 33342 staining-based confocal microscopy (reference value: 5%); assay type: functional
[3] = Cytotoxicity against human HSF cells at 50 ug/ml after 48 hrs by BrdU incorporation assay relative to control; assay type: cell-based; settings: read-out: GI
HeLa [4] = test: Cytotoxicity against human HeLa cells at 50 ug/ml after 72 hrs by BrdU incorporation assay relative to control; assay type: functional; settings: read-out: GI
T47D [5] = test: Cytotoxicity against human T47D cells at 50 ug/ml after 48 hrs by BrdU incorporation assay relative to control; assay type: functional; settings: read-out: GI
[6] = Cytotoxicity against human HSF cells at 50 ug/ml after 72 hrs by BrdU incorporation assay relative to control; assay type: cell-based; settings: read-out: GI
[7] = Cytotoxicity against human MM1S cells at 50 ug/ml after 24 hrs by BrdU incorporation assay relative to control; assay type: functional; settings: MM1.S, read-out: GI
[8] = Induction of necrosis in human HSF cells at 50 ug/ml after 72 hrs by propidium iodide/Hoechst 33342 staining-based confocal microscopy (reference value: 5%); assay type: cell-based
[9] = Cytotoxicity against human MM1R cells at 50 ug/ml after 48 hrs by BrdU incorporation assay relative to control; assay type: functional; settings: MM.1R, read-out: GI
T47D [10] = test: Cytotoxicity against human T47D cells at 50 ug/ml after 24 hrs by BrdU incorporation assay relative to control; assay type: functional; settings: read-out: GI
T47D [11] = test: Induction of necrosis in human T47D cells at 50 ug/ml after 24 hrs by propidium iodide/Hoechst 33342 staining-based confocal microscopy (reference value: 5%); assay type: functional
[12] = Cytotoxicity against human HSF cells at 50 ug/ml after 24 hrs by BrdU incorporation assay relative to control; assay type: cell-based; settings: read-out: GI
T47D [13] = test: Induction of necrosis in human T47D cells at 50 ug/ml after 48 hrs by propidium iodide/Hoechst 33342 staining-based confocal microscopy (reference value: 8%); assay type: functional
HeLa [14] = test: Cytotoxicity against human HeLa cells at 50 ug/ml after 48 hrs by BrdU incorporation assay relative to control; assay type: functional; settings: read-out: GI
T47D [15] = test: Cytotoxicity against human T47D cells at 50 ug/ml after 72 hrs by BrdU incorporation assay relative to control; assay type: functional; settings: read-out: GI
HeLa [16] = test: Induction of necrosis in human HeLa cells at 50 ug/ml after 72 hrs by propidium iodide/Hoechst 33342 staining-based confocal microscopy (reference value: 10%); assay type: functional
HeLa [17] = test: Induction of necrosis in human HeLa cells at 50 ug/ml after 24 hrs by propidium iodide/Hoechst 33342 staining-based confocal microscopy (reference value: 5%); assay type: functional
[18] = Induction of apoptosis in human HSF cells at 50 ug/ml after 24 hrs by propidium iodide/Hoechst 33342 staining-based confocal microscopy (reference value: 2%); assay type: cell-based
T47D [19] = test: Induction of apoptosis in human T47D cells at 50 ug/ml after 48 hrs by propidium iodide/Hoechst 33342 staining-based confocal microscopy (reference value: 2%); assay type: functional
HeLa [20] = test: Induction of apoptosis in human HeLa cells at 50 ug/ml after 48 hrs by propidium iodide/Hoechst 33342 staining-based confocal microscopy (reference value: 5%); assay type: functional
T47D [21] = test: Induction of apoptosis in human T47D cells at 50 ug/ml after 24 hrs by propidium iodide/Hoechst 33342 staining-based confocal microscopy (reference value: 2%); assay type: functional
[22] = Induction of apoptosis in human HSF cells at 50 ug/ml after 48 hrs by propidium iodide/Hoechst 33342 staining-based confocal microscopy (reference value: 5%); assay type: cell-based
T47D [23] = test: Induction of apoptosis in human T47D cells at 50 ug/ml after 72 hrs by propidium iodide/Hoechst 33342 staining-based confocal microscopy (reference value: 5%); assay type: functional
[24] = Cytotoxicity against human MM1R cells at 50 ug/ml after 24 hrs by BrdU incorporation assay relative to control; assay type: functional; settings: MM.1R, read-out: GI
[25] = Induction of necrosis in human HSF cells at 50 ug/ml after 24 hrs by propidium iodide/Hoechst 33342 staining-based confocal microscopy (reference value: 2%); assay type: cell-based
[26] = Induction of apoptosis in human HSF cells at 50 ug/ml after 72 hrs by propidium iodide/Hoechst 33342 staining-based confocal microscopy (reference value: 5%); assay type: cell-based
[27] = Induction of necrosis in human HSF cells at 50 ug/ml after 48 hrs by propidium iodide/Hoechst 33342 staining-based confocal microscopy (reference value: 4%); assay type: cell-based
[28] = Cytotoxicity against human MM1R cells at 50 ug/ml after 72 hrs by BrdU incorporation assay relative to control; assay type: functional; settings: MM.1R, read-out: GI
[29] = Cytotoxicity against human MM1S cells at 50 ug/ml after 72 hrs by BrdU incorporation assay relative to control; assay type: functional; settings: MM1.S, read-out: GI
HeLa [30] = test: Induction of apoptosis in human HeLa cells at 50 ug/ml after 24 hrs by propidium iodide/Hoechst 33342 staining-based confocal microscopy (reference value: 2%); assay type: functional
T47D [31] = test: Induction of necrosis in human T47D cells at 50 ug/ml after 72 hrs by propidium iodide/Hoechst 33342 staining-based confocal microscopy (reference value: 10%); assay type: functional
HeLa [32] = test: Cytotoxicity against human HeLa cells at 50 ug/ml after 24 hrs by BrdU incorporation assay relative to control; assay type: functional; settings: read-out: GI
HeLa [33] = test: Induction of necrosis in human HeLa cells at 50 ug/ml after 48 hrs by propidium iodide/Hoechst 33342 staining-based confocal microscopy (reference value: 10%); assay type: functional
[34] = Selectivity ratio for human RPMI8226 cells over human HSF cells; assay type: ADME, cell-based, RPMI-8226; settings: RPMI8226 cells versus HSF cells
[35] = Toxicity in ip dosed albino-Swiss mouse; assay type: organism-based; settings: in vivo

| SMILES | inhibition of growth at 50 µg/mL [1] | inhibition at 48 h, 50 ug/ml [3] | inhibition of growth at 50 µg/mL (HeLa [4]) | inhibition of growth at 50 µg/mL (T47D [5]) | inhibition at 72 h, 50 ug/ml [6] | inhibition of growth at 50 µg/mL [7] | inhibition of growth at 50 µg/mL [9] | inhibition of growth at 50 µg/mL (T47D [10]) | inhibition at 24 h, 50 ug/ml [12] | inhibition of growth at 50 µg/mL (HeLa [14]) | inhibition of growth at 50 µg/mL (T47D [15]) | inhibition of growth at 50 µg/mL [24] | inhibition of growth at 50 µg/mL [28] | inhibition of growth at 50 µg/mL [29] | inhibition of growth at 50 µg/mL (HeLa [32]) | further results |
| --- | --- | --- | --- | --- | --- | --- | --- | --- | --- | --- | --- | --- | --- | --- | --- | --- |
| CCOC(=O)Cc1nnc2n(c1=O)CCN2c1ccccc1 | 30% | 50% | 75% | 80% | 50% | 25% | 85% | 40% | 25% | 75% | 85% | 80% | 90% | 80% | 20% | Activity (HeLa [2]): 15%; Activity [8]: 50%; Activity (T47D [11]): 40%; Activity (T47D [13]): 80%; Activity (HeLa [16]): 80%; Activity (HeLa [17]): 20%; Activity [18]: 5%; Activity (T47D [19]): 10%; Activity (HeLa [20]): 15%; Activity (T47D [21]): 5%; Activity [22]: 5%; Activity (T47D [23]): 10%; Activity [25]: 25%; Activity [26]: 8%; Activity [27]: 50%; Activity (HeLa [30]): 10%; Activity (T47D [31]): 85%; Activity (HeLa [33]): 75% |
| O=c1c(-c2ccccc2)nnc2n1CCN2c1cccc(Cl)c1 |  |  |  |  |  |  |  |  |  |  |  |  |  |  |  | selectivity ratio [34]: 1.5 |
| O=c1c(-c2ccccc2)nnc2n1CCN2c1ccc(Cl)cc1 |  |  |  |  |  |  |  |  |  |  |  |  |  |  |  | LD50 [35]: > 2000 mg/kg |
| CCOC(=O)Cc1nnc2n(c1=O)CCN2c1ccc(Cl)c(Cl)c1 | 65% | 60% | 80% | 40% | 70% | 40% | 80% | 25% | 50% | 45% | 50% | 65% | 90% | 80% | 45% | Activity (HeLa [2]): 15%; Activity [8]: 70%; Activity (T47D [11]): 25%; Activity (T47D [13]): 45%; Activity (HeLa [16]): 80%; Activity (HeLa [17]): 45%; Activity [18]: 10%; Activity (T47D [19]): 10%; Activity (HeLa [20]): 10%; Activity (T47D [21]): 15%; Activity [22]: 10%; Activity (T47D [23]): 20%; Activity [25]: 50%; Activity [26]: 12%; Activity [27]: 60%; Activity (HeLa [30]): 10%; Activity (T47D [31]): 50%; Activity (HeLa [33]): 45% |
| CCOC(=O)C/C(=N\N=C1/NCCN1c1ccc(C)cc1)C(=O)OCC | 70% | 80% | 50% | 75% | 80% | 55% | 90% | 50% | 70% | 45% | 80% | 75% | 95% | 85% | 5% |  |
| CCOC(=O)C/C(=N\N=C1/NCCN1c1ccc(Cl)cc1)C(=O)OCC | 75% | 90% | 55% | 85% | 90% | 65% | 80% | 80% | 70% | 30% | 90% | 65% | 90% | 90% | 10% |  |
| CCOC(=O)C/C(=N\N=C1/NCCN1c1cccc(Cl)c1)C(=O)OCC | 65% | 90% | 45% | 85% | 90% | 40% | 75% | 80% | 70% | 25% | 90% | 70% | 80% | 80% | 5% |  |
| CCOC(=O)Cc1nnc2n(c1=O)CCN2c1cccc(Cl)c1 | 60% | 10% | 50% | 55% | 10% | 55% | 85% | 55% | 10% | 50% | 55% | 80% | 90% | 80% | 10% | Activity (HeLa [2]): 15%; Activity [8]: 10%; Activity (T47D [11]): 25%; Activity (T47D [13]): 50%; Activity (HeLa [16]): 50%; Activity (HeLa [17]): 10%; Activity [18]: 5%; Activity (T47D [19]): 20%; Activity (HeLa [20]): 15%; Activity (T47D [21]): 10%; Activity [22]: 5%; Activity (T47D [23]): 20%; Activity [25]: 10%; Activity [26]: 10%; Activity [27]: 10%; Activity (HeLa [30]): 10%; Activity (T47D [31]): 55%; Activity (HeLa [33]): 50% |
| CCOC(=O)C/C(=N\N=C1/NCCN1c1ccc(Cl)c(Cl)c1)C(=O)OCC | 80% | 90% | 60% | 95% | 90% | 70% | 80% | 80% | 70% | 50% | 100% | 70% | 80% | 90% | 50% |  |
| CCOC(=O)Cc1nnc2n(c1=O)CCN2c1ccccc1OC | 55% | 80% | 50% | 35% | 80% | 45% | 80% | 30% | 50% | 45% | 40% | 75% | 95% | 85% | 10% |  |
| CCOC(=O)Cc1nnc2n(c1=O)CCN2c1ccc(C)cc1 | 60% | 75% | 70% | 75% | 80% | 50% | 70% | 25% | 50% | 70% | 80% | 60% | 75% | 70% | 20% |  |
